Experimental data from patent US20190070128A1, “USE OF CANNABIDIVARIN IN THE TREATMENT OF AUTISM SPECTRUM DISORDER, ASSOCIATED DISORDERS AND SCHIZOPHRENIA” (GW Research Limited, priority 2016, published 2019).

Key:
[1] = system: VPA-exposed rats; assay: short-term memory, novel object recognition test, prenatal VPA model; format: in vivo, rat
Method: Pregnant Sprague-Dawley rats (Charles River, Calco, Italy), received a single intraperitoneal injection of 500 mg/kg sodium valproate on the 12.5 day after conception, and control females were injected with physiological saline at the same time. Sodium valproate (Sigma Aldrich, Milan, IT) was dissolved in saline at a concentration of 250 mg/ml.
CBDV was dissolved in ethanol, cremophor and saline (1:1:18). Symptomatic treatment with CBDV at doses of 0.2, 2, 20, and 100 mg/kg/day i.p. was performed starting from PND 34 (early adolescence) till 56 (early adulthood), both in male and female offspring of dams injected with VPA 500 mg/kg (or vehicle) on day 12.5 after conception. […]
Short-term memory: The experimental apparatus used for the object recognition test was an open-field box (43×43×32 cm) made of Plexiglas, placed in a dimly illuminated room. The experiment was performed and analysed as previously described (Zamberletti et al, 2014). […]
Each animal was placed in the arena and allowed to explore two identical previously unseen objects for 5 minutes (familiarization phase). […] During the test phase the time spent exploring the familiar object (Ef) and the new object (En) was videotaped and recorded separately by two observers blind to the treatment groups and the discrimination index was calculated as follows: [(En−Ef)/(En+Ef)]×100.

[2] = system: MeCP2 KO mice; assay: Novel Object Recognition (NOR) test in MeCP2 KO mice; format: in vivo, mouse
Method: Furthermore, the efficacy of CBDV in reverting/attenuating the short- and long-term memory deficits present in these mice was evaluated. The Novel Object Recognition (NOR) test was performed before the starting of the treatment Post Natal Day 28 (PND 28), at PND 41 when the first motor symptoms appear and at PND 56 and 66 when the disease is fully manifested.
At PND 28, 41, 56 and 66 the effect of CBDV on short- and long-term memory deficits was investigated through the Novel Object Recognition (NOR) test.
The experimental apparatus used for the Novel Object Recognition test was an open-field box (43×43×32 cm) made of Plexiglas, placed in a dimly illuminated room. Animals performed each test individually.
Briefly, each animal was placed in the arena and allowed to explore two identical previously unseen objects for 10 minutes (familiarization phase). After an inter-trial interval of 30 minutes and 24 hours one of the two familiar objects was replaced by a novel, previously unseen object and mice were returned to the arena for the 10-minute test phase.
During the test phase the time spent exploring the familiar object (Ef) and the new object (En) was recorded separately by two observers blind to the groups and the discrimination index was calculated as follows: [(En−Ef)/(En+Ef)]×100.

[3] = biological target: hCB1 (Homo sapiens, UniProt P21554); conditions: cited from earlier work
Chain of hCB1 (P21554 whole entry): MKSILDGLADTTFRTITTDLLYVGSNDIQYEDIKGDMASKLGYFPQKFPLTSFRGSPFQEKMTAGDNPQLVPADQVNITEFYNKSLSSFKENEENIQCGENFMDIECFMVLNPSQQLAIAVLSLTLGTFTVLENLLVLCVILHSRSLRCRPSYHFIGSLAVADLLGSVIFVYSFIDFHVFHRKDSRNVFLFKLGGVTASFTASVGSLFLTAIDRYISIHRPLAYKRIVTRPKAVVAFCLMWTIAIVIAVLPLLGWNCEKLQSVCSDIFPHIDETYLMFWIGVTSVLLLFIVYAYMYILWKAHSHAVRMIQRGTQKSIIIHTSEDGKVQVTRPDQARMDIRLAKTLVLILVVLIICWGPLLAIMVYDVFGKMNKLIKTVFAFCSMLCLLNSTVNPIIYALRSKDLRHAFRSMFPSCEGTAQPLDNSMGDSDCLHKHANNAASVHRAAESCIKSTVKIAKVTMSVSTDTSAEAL

C=C(C)[C@@H]1CCC(C)=C[C@H]1c1c(O)cc(CCC)cc1O [CBDV, Cannabidivarin]
short-term memory deficit (discrimination index) ([1]; male and female VPA rats, 2, 20 and 100 mg/kg): completely and significantly reversed | recognition memory per se ([1]; vehicle-treated (non VPA) rats): without affecting | cognitive impairment in short-term memory ([2]; MeCP2 KO mice, 2, 20 and 200 mg/kg, each time point (PND 41, 56, 66), 30 minutes interval): significantly reverted | cognitive impairment in long-term memory ([2]; MeCP2 KO mice, all three doses, 24 hours interval): significantly counteract | recognition memory (long-term) ([2]; WT littermates): without affecting | recognition memory (short-term) ([2]; WT littermates): without affecting | affinity for the CB1 receptor [3]: low affinity
